Assay results published in paper PMC4501499 (MedChemComm, 2015).

Columns and labels:
rat UT-A1 = target: T1, rat UT-A1 (Rattus norvegicus, UniProt Q62668); assay: UT-A1 inhibition assay; type: cell-based; conditions: for UT inhibition activity (in words): text summary of urea transport inhibition (UT-A1 / UT-B, Table 1)
T1 sequence (Q62668 1-929): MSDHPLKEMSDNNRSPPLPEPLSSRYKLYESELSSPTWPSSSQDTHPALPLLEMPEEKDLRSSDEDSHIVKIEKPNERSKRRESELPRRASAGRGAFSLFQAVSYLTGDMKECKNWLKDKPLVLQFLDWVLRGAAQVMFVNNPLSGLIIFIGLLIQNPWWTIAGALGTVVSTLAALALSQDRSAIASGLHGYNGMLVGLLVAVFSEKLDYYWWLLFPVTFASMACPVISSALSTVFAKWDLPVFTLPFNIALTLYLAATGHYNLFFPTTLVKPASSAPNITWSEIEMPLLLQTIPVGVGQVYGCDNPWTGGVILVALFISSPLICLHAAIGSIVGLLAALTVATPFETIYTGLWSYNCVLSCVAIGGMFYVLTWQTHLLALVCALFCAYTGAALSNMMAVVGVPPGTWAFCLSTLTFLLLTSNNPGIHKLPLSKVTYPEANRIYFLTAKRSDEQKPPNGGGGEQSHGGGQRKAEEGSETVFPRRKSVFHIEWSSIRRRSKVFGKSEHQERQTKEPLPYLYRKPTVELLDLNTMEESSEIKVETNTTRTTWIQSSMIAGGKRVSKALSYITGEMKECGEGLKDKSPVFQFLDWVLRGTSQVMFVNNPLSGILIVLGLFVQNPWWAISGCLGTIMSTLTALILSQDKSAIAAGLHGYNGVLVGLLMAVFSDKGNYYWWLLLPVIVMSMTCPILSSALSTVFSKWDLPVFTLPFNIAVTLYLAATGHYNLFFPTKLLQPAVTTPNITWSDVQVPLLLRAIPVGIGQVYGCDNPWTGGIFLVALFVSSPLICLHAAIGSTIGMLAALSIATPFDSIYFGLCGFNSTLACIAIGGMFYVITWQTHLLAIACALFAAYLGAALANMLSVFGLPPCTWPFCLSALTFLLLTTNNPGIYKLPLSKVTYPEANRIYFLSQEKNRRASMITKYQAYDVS

[1] = in vitro microsomal stability with NADPH, LC/MS; conditions: rat liver microsomes
UT-B = target: T2, UT-B (Rattus norvegicus, UniProt P97689); assay: UT-B inhibition assay; type: cell-based; conditions: concentration-inhibition fit
T2 sequence (P97689 1-384): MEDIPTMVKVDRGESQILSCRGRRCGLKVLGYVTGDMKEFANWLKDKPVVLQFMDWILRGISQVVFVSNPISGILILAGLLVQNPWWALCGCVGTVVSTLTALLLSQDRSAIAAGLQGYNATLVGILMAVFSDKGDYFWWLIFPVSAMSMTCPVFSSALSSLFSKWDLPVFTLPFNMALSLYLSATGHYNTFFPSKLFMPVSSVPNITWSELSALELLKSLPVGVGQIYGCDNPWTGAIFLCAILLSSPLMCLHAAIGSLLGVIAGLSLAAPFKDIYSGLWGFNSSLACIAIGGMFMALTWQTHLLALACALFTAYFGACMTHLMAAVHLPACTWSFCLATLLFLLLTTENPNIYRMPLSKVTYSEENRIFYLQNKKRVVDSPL

Row | SMILES | UT inhibition activity (in words) (rat UT-A1) | [M+H-16] metabolite by LC/MS [1] | further results
1 | CS(=O)(=O)Nc1ccc2c(c1)C(=O)c1cc(NS(C)(=O)=O)ccc1-2 [compound 9] | strong inhibition | – | –
2 | CC(=O)Nc1ccc2c(c1)C(=O)c1cc(NC(C)=O)ccc1-2 [compound 3, 2,7-bisacetamido fluoren-9-one] | – | detected | extent of UT-A1 inhibition at higher concentrations (rat UT-A1; higher concentrations): complete inhibition; reversibility of UT-A1 inhibition (rat UT-A1; incubation near IC50, then washing with PBS): complete reversibility; time to complete inhibition of UT-A1 (rat UT-A1; inhibition kinetics): ≤ 40 s; Hill coefficient, UT-A1 (rat UT-A1; rat UT-A1, concentration-inhibition fit): 0.9; inhibition mechanism (urea competition) (rat UT-A1; urea 80 to 1,600 mM, apparent IC50 independent of urea concentration): non-competitive; Hill coefficient, UT-B (UT-B): 1.1
3 | CC(=O)Nc1cccc(C(=O)c2cccc(NC(C)=O)c2)c1 [compound 22] | – | not detected | –
4 | CS(=O)(=O)Nc1cccc(C(=O)c2cccc(NS(C)(=O)=O)c2)c1 [compound 24, bismethanesulfonamidobenzophenone] | inactive | – | –
5 | O=C(CO)Nc1ccc2c(c1)C(=O)c1cc(NC(=O)CO)ccc1-2 [compound 12] | low activity | – | –
6 | O=C1c2cc(NC(=O)C(F)(F)F)ccc2-c2ccc(NC(=O)C(F)(F)F)cc21 [compound 7] | much less active | – | –
7 | CC(=O)Nc1ccc2c(c1)C(=NO)c1cc(NC(C)=O)ccc1-2 [compound 17] | – | not detected | –
